Measurements taken from paper PMC2901826, “Intramolecular Modulation of Serine Protease Inhibitor Activity in a Marine Cyanobacterium with Antifeedant Properties” (Marine Drugs, 2010).

Tests used:
[1] = target: T1, α-chymotrypsin from bovine pancreas (Bos taurus, UniProt P00766); assay: Chymotrypsin inhibition assay; format: biochemical; conditions: for IC50: α-chymotrypsin from bovine pancreas, substrate N-succinyl-Gly-Gly-Phe-p-nitroanilide, 30 min pre-incubation, triplicate, read-out: Serine protease inhibitory activity (IC50), Chymotrypsin
T1 construct: purchased Sigma C4129; host or cells: bovine pancreas
Protocol: (§1) Elastase assay was assessed using high-purity porcine pancreatic elastase (Elastin Products Company, EC134, 135 units/mg). The assay buffer used was 1M Tris-HCl (pH 8.0). Assay buffer (79 μL), elastase solution (75 μg/mL in assay buffer, 5 μL) and various concentrations of 1 and 2 (1 μL, dissolved in DMSO) were pre-incubated for 15 min at room temperature in a microtiter plate. After this time, 15 μL of substrate solution (2 mM N-succinyl-Ala-Ala-Ala-p-nitroanilide in assay buffer) was added to each well and the reaction was followed by measuring the absorbance at 405 nm every 30 s. Inhibition of chymotrypsin was determined using the α-chymotrypsin from bovine pancreas (Sigma, C4129, 55 units/mg). The assay buffer was 50 mM Tris-HCl, 100 mM NaCl and 1 mM CaCl2 (pH 7.8). Assay buffer (39 μL), enzyme solution (100 μg/mL in assay buffer, 10 μL), and various concentrations of 1 and 2 (1 μL, dissolved in DMSO) were pre incubated for 30 min at room temperature before substrate solution (1.5 mM N-succinyl-Gly-Gly-Phe-p-nitroanilide in assay buffer) was added. The reaction was followed by measuring the absorbance at 405 nm every 30 s for 30 min. For each assay, enzyme activity of each well was calculated using the initial slope of each progress curve, expressed as a percentage of the slope of uninhibited reaction. All assays were carried out in triplicate at ambient temperature (T = 29 °C). […] Dose–response curve fitting was done using Xlfit Excel, MathlQ Version 2.2.2 (IDBS Ltd.).

[2] = target: T2, porcine pancreatic elastase (Sus scrofa, UniProt P00772); assay: Elastase inhibition assay; format: biochemical; conditions: for IC50: porcine pancreatic elastase, substrate N-succinyl-Ala-Ala-Ala-p-nitroanilide, 15 min pre-incubation, triplicate, read-out: Serine protease inhibitory activity (IC50), Elastase
T2 construct: purchased Elastin Products Company EC134; host or cells: porcine pancreas
T2 sequence (P00772 27-266): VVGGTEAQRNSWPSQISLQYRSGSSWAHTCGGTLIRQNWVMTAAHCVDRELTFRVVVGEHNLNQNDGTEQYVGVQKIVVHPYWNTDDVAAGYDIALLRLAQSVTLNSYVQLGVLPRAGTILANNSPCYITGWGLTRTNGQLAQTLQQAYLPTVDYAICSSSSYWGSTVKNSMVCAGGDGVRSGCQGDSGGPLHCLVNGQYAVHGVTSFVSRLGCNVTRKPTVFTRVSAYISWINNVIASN
Protocol: as §1

[3] = target: T1, α-chymotrypsin from bovine pancreas; conditions: cited from earlier work

CC(C)C[C@@H]1NC(=O)[C@@H](NC(=O)[C@@H](NC(=O)[C@H](C)NC(=O)[C@H](CCCc2ccc(O)cc2)NC(=O)[C@H](O)CO)C(C)C)[C@@H](C)OC(=O)[C@H](C(C)C)NC(=O)[C@H](Cc2ccc(O)c(Br)c2)N(C)C(=O)[C@H]([C@@H](C)O)N2C(=O)[C@H](CC[C@H]2O)NC1=O [Largamide D (2), largamide D]
IC50 [1]: 83 ± 8 nM
IC50 [2]: 45 ± 3 nM
chymotrypsin inhibition, previously reported [3]: moderate chymotrypsin inhibitor

CC(C)CC1NC(=O)C(NC(=O)C(NC(=O)C(C)NC(=O)C(CCCc2ccc(O)cc2)NC(=O)C(O)CO)C(C)C)C(C)OC(=O)C(C(C)C)NC(=O)C(Cc2ccc(O)c(Br)c2)N(C)C(=O)C2C(C)OC3CCC(NC1=O)C(=O)N32 (stereo not shown) [Largamide D oxazolidine (1), largamide D oxazolidine]
fold reduced activity against chymotrypsin ([1]; relative to largamide D (2)): 11 fold
IC50 [1]: 928 ± 93 nM
IC50 [2]: 1520 ± 80 nM
fold reduced activity against elastase ([2]; relative to largamide D (2)): 33 fold
